One experiment concerns MYC mRNA expression in SU-DHL-4 cells. Briefly: Suppressive effect on MYC mRNA expression (Test Example 2). The note with it: Homo sapiens, test compound 100 nmol/L, 6 hours, qRT-PCR corrected by ACTB, GAPDH, HPRT1, read-out: Suppression Rate of MYC mRNA Expression (%). In kind it is cell-based, human. The essentials:
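SU-DHL-4 cells were treated for 6 h at 37 °C with compound (0.1% DMSO final). MYC mRNA was measured by TaqMan qRT-PCR and normalised to the geometric mean of ACTB, GAPDH and HPRT1. Suppression was calculated relative to untreated wells.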
On the technique in general: Quantitative PCR measures a nucleic acid by following its amplification.
In the case of `CCC(=O)N1c2ccccc2[C@H](Nc2ccc(NC(=O)N3CCN(C(=O)c4ccc(N[C@@H]5C[C@H](C)N(C(=O)CC)c6ccccc65)cc4)CC3)cc2)C[C@@H]1C` (relative stereo) [Compound 6m, 4-(4-(((2S,4R)-2-Methyl-1-propionyl-1,2,3,4-tetrahydroquinolin-4-yl)amino)benzoyl)-N-(4-(((2S*,4R*)-2-methyl-1-propionyl-1,2,3,4-tetrahydroquinolin-4-yl)amino)phenyl)piperazine-1-carboxamide], the inhibition at 0.1 µM came to 97%.

Turning to `CCC(=O)N1c2ccccc2[C@H](Nc2ccc(-n3cc(CNC(=O)N4CCC(N[C@@H]5C[C@H](C)N(C(=O)CC)c6ccccc65)CC4)nn3)cc2)C[C@@H]1C` (relative stereo) [Compound 10b, 4-(((2S*,4R*)-2-Methyl-1-propionyl-1,2,3,4-tetrahydroquinolin-4-yl)amino)-N-((1-(4-(((2S,4R)-2-methyl-1-propionyl-1,2,3,4-tetrahydroquinolin-4-yl)amino)phenyl)-1H-1,2,3-triazol-4-yl)methyl)piperidine-1-carboxamide], the inhibition at 0.1 µM came to 96.6%.

With `CCC(=O)N1c2ccccc2[C@H](Nc2ccc(CNCc3cn(-c4ccc(N[C@@H]5C[C@H](C)N(C(=O)CC)c6ccccc65)cc4)nn3)cc2)C[C@@H]1C` [Compound 5h, 1-((2S,4R)-2-Methyl-4-((4-((((1-(4-(((2S,4R)-2-methyl-1-propionyl-1,2,3,4-tetrahydroquinolin-4-yl)amino)phenyl)-1H-1,2,3-triazol-4-yl)methyl)amino)methyl)phenyl)amino)-3,4-dihydroquinolin-1(2H)-yl)propan-1-one], the inhibition at 0.1 µM is 97.3%.

With `CCC(=O)N1c2ccccc2[C@H](Nc2ccc(-c3cnn(CCNC(=O)c4ccc(Cn5c(C(=O)OCCN(C)C)cc6c5CCCC6=O)cc4)c3)cc2)C[C@@H]1C` [Compound 15d, 2-(Dimethylamino)ethyl 1-(4-((2-(4-(4-(((2S,4R)-2-methyl-1-propionyl-1,2,3,4-tetrahydroquinolin-4-yl)amino)phenyl)-1H-pyrazol-1-yl)ethyl)carbamoyl)benzyl)-4-oxo-4,5,6,7-tetrahydro-1H-indole-2-carboxylate], the inhibition at 0.1 µM was found to be 96.9%.

As to `CCC(=O)N1c2ccccc2[C@H](Nc2ccc(C(=O)N3CC4CC3CN4C(=O)c3ccc(N[C@@H]4C[C@H](C)N(C(=O)CC)c5ccccc54)cc3)cc2)C[C@@H]1C` [Compound 1k, 1,1′-{(2S,2'S,4R,4′R)-{[(2,5-Diazabicyclo[2.2.1]heptane-2,5-dicarbonyl)bis(4,1-phenylene)]bis(azanediyl)}bis[2-methyl-3,4-dihydroquinoline-4,1(2H)-diyl]}bis(propan-1-one)], the inhibition at 0.1 µM worked out at 98.6%.

For `CCC(=O)N1c2ccccc2[C@H](Nc2ccc(NC(=O)CCCC(=O)Nc3cccc(Oc4ccccc4-c4cn(C)c(=O)cc4OC)c3)cc2)C[C@@H]1C` [Compound 16m, N^1-(3-(2-(4-Methoxy-1-methyl-6-oxo-1,6-dihydropyridin-3-yl)phenoxy)phenyl)-N5-(4-(((2S,4R)-2-methyl-1-propionyl-1,2,3,4-tetrahydroquinolin-4-yl)amino)phenyl)glutaramide], the inhibition at 0.1 µM stood at 97.1%.

In the case of `CCC(=O)N1c2ccccc2[C@H](Nc2ccc(C(=O)NC3CCN(C(=O)c4ccc(N[C@@H]5C[C@H](C)N(C(=O)CC)c6ccccc65)cc4)CC3)cc2)C[C@@H]1C` (relative stereo) [Compound 1c, 4-{[(2S*,4R*)-2-Methyl-1-propionyl-1,2,3,4-tetrahydroquinolin-4-yl]amino}-N-[1-(4-{[(2S*,4R*)-2-methyl-1-propionyl-1,2,3,4-tetrahydroquinolin-4-yl]amino}benzoyl)piperidin-4-yl]benzamide], the inhibition at 0.1 µM was 97.3%.

In the case of `CCC(=O)N1c2ccccc2[C@H](Nc2ccc(-c3cnn(CC(=O)Nc4ccc(C5=NCc6nnc(C)n6-c6sc(C)c(C)c65)cc4)c3)cc2)C[C@@H]1C` [Compound 14a, 2-(4-(4-(((2S,4R)-2-Methyl-1-propionyl-1,2,3,4-tetrahydroquinolin-4-yl)amino)phenyl)-1H-pyrazol-1-yl)-N-(4-(2,3,9-trimethyl-6H-thieno[3,2-f][1,2,4]triazolo[4,3-a][1,4]diazepin-4-yl)phenyl)acetamide], the inhibition at 0.1 µM was 97.1%.

`CCC(=O)N1c2ccccc2[C@H](Nc2ccc(Cc3cnc4n3CCN(C(=O)c3ccc(N[C@@H]5C[C@H](C)N(C(=O)CC)c6ccccc65)cc3)C4)cc2)C[C@@H]1C` [Compound 5q, 1-((2S,4R)-2-Methyl-4-((4-((7-(4-(((2S,4R)-2-methyl-1-propionyl-1,2,3,4-tetrahydroquinolin-4-yl)amino)benzoyl)-5,6,7,8-tetrahydroimidazo[1,2-a]pyrazin-3-yl)methyl)phenyl)amino)-3,4-dihydroquinolin-1(2H)-yl)propan-1-one]: the inhibition at 0.1 µM worked out at 97.2%.

Consider `CCC(=O)N1c2ccccc2[C@H](Nc2ccc(NC(=O)C3CN(C(=O)c4ccc(N[C@@H]5C[C@H](C)N(C(=O)CC)c6ccccc65)cc4)C3)cc2)C[C@@H]1C` (relative stereo) [Compound 2h, 1-(4-{[(2S,4R)-2-Methyl-1-propionyl-1,2,3,4-tetrahydroquinolin-4-yl]amino}benzoyl)-N-(4-{[(2S*,4R*)-2-methyl-1-propionyl-1,2,3,4-tetrahydroquinolin-4-yl]amino}phenyl)azetidine-3-carboxamide], for which the inhibition at 0.1 µM was 98.2%.

Take `CCC(=O)N1c2ccccc2[C@H](Nc2ccc(NC(=O)CCCC(=O)Nc3ccc(N[C@@H]4C[C@H](C)N(C(=O)CC)c5ccccc54)nc3)cc2)C[C@@H]1C` [Compound 10k, N^1-(4-(((2S,4R)-2-Methyl-1-propionyl-1,2,3,4-tetrahydroquinolin-4-yl)amino)phenyl)-N^5-(6-(((2S,4R)-2-methyl-1-propionyl-1,2,3,4-tetrahydroquinolin-4-yl)amino)pyridin-3-yl)glutaramide]: the inhibition at 0.1 µM is 97%.

As to `CCC(=O)N1c2ccccc2[C@H](NCCCCCCCC(=O)Nc2ccc(N[C@@H]3C[C@H](C)N(C(=O)CC)c4ccccc43)cc2)C[C@@H]1C` (relative stereo) [Compound 12h, 8-(((2S*,4R*)-2-Methyl-1-propionyl-1,2,3,4-tetrahydroquinolin-4-yl)amino)-N-(4-(((2S,4R)-2-methyl-1-propionyl-1,2,3,4-tetrahydroquinolin-4-yl)amino)phenyl)octanamide], the inhibition at 0.1 µM was 96.5%.

Turning to `CCC(=O)N1c2ccccc2[C@H](Nc2ccc(CCCC(=O)Nc3ccc(N[C@@H]4C[C@H](C)N(C(=O)CC)c5ccccc54)cc3)cc2)C[C@@H]1C` [Compound 5r, N,4-Bis(4-(((2S,4R)-2-methyl-1-propionyl-1,2,3,4-tetrahydroquinolin-4-yl)amino)phenyl)butanamide], the inhibition at 0.1 µM was 96.7%.

As for `CCC(=O)N1c2ccccc2[C@H](Nc2ccc(NC(=O)CCSc3ccc(N[C@@H]4C[C@H](C)N(C(=O)CC)c5ccccc54)cc3)cc2)C[C@@H]1C` (relative stereo) [Compound 4e, N-(4-{[(2S*,4R*)-2-Methyl-1-propionyl-1,2,3,4-tetrahydroquinolin-4-yl]amino}phenyl)-3-[(4-{[(2S,4R)-2-methyl-1-propionyl-1,2,3,4-tetrahydroquinolin-4-yl]amino}phenyl)thio]propanamide], the inhibition at 0.1 µM was 98.4%.

With `CCC(=O)N1c2ccccc2C(Nc2ccc(NC(=O)C#CCNC(=O)c3ccc(N[C@@H]4C[C@H](C)N(C(=O)CC)c5ccccc54)cc3)cc2)CC1C` (stereo partly drawn) [Compound 6h, 4-(((2S,4R)-2-Methyl-1-propionyl-1,2,3,4-tetrahydroquinolin-4-yl)amino)-N-(4-((4-((2-methyl-1-propionyl-1,2,3,4-tetrahydroquinolin-4-yl)amino)phenyl)amino)-4-oxobut-2-yn-1-yl)benzamide], the inhibition at 0.1 µM worked out at 97.2%.

The same experiment, now with this note: test compound 100 nmol/L, 6 hours, qRT-PCR corrected by ACTB, GAPDH, HPRT1.
With `CCC(=O)N1c2ccccc2[C@H](Nc2ccc(-c3nnc(CNC(=O)[C@H]4CC[C@H](N[C@@H]5C[C@H](C)N(C(=O)CC)c6ccccc65)CC4)o3)cc2)C[C@@H]1C` [Compound 7q, (1R,4R)-4-(((2S,4R)-2-Methyl-1-propionyl-1,2,3,4-tetrahydroquinolin-4-yl)amino)-N-((5-(4-(((2S,4R)-2-methyl-1-propionyl-1,2,3,4-tetrahydroquinolin-4-yl)amino)phenyl)-1,3,4-oxadiazol-2-yl)methyl)cyclohexane-1-carboxamide], the “Suppression Rate of MYC mRNA Expression (%)” value (“Suppression Rate … (%)” below) is 97.4%.

Turning to `CCC(=O)N1c2ccccc2[C@H](Nc2ccc(NC(=O)CCCC(=O)Nc3cccc(Oc4ccc(NS(=O)(=O)CC)cc4-c4cn(C)c(=O)cc4OC)c3)cc2)C[C@@H]1C` [Compound 16j, N^1-(3-(4-(Ethylsulfonamide)-2-(4-methoxy-1-methyl-6-oxo-1,6-dihydropyridin-3-yl)phenoxy)phenyl)-N5-(4-(((2S,4R)-2-methyl-1-propionyl-1,2,3,4-tetrahydroquinolin-4-yl)amino)phenyl)glutaramide], the “Suppression Rate … (%)” value turned out to be 92.4%.

For `CCC(=O)N1c2ccccc2[C@H](Nc2ccc(Cn3cc(C(=O)Nc4ccc(N[C@@H]5C[C@H](C)N(C(=O)CC)c6ccccc65)cc4)nn3)cc2)C[C@@H]1C` [Compound 5j, 1-(4-(((2S,4R)-2-Methyl-1-propionyl-1,2,3,4-tetrahydroquinolin-4-yl)amino)benzyl)-N-(4-(((2S,4R)-2-methyl-1-propionyl-1,2,3,4-tetrahydroquinolin-4-yl)amino)phenyl)-1H-1,2,3-triazolee-4-carboxamide], the “Suppression Rate … (%)” value stood at 96.8%.

The record behind these values is patent US20220378923A1, “BET DEGRADER” (KYOWA KIRIN CO., LTD., priority 2019, published 2022).
